“And” between values parts separate entries of the source, which are not always exact repeats. Identical values can stand only once. Inconclusive results and toxic doses are left out. How the source made its calls: active means survival T/C of 150% or more; inactive means T/C below 125% in these data.
Test system: CD2F1 mice, L1210 leukemia ip, survival T/C
Experiment: NCI In Vivo Anticancer Drug Screen. Data for tumor model L1210 Leukemia (intraperitoneal) in CD2F1 (CDF1) mice
Conditions: higher = longer survival
Procedure, shortened: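 Read-out first: treated-group measurement over vehicle-control measurement, expressed as a ratio. Animals bore a transplanted tumor line and were dosed with compound or vehicle.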

[1] = endpoint: mean survival time, dose: 100.0 mg/kg/injection, schedule: Q04DX003 (ip), vehicle: saline with Tween-80
[2] = endpoint: mean survival time, dose: 200.0 mg/kg/injection, schedule: Q04DX003 (ip), vehicle: saline with Tween-80
[3] = endpoint: mean survival time, dose: 400.0 mg/kg/injection, schedule: Q04DX003 (ip), vehicle: saline with Tween-80
[4] = endpoint: mean survival time, dose: 100.0 mg/kg/injection, schedule: Q01DX001 (ip), vehicle: saline with Tween-80
[5] = endpoint: mean survival time, dose: 200.0 mg/kg/injection, schedule: Q01DX001 (ip), vehicle: saline with Tween-80
[6] = endpoint: mean survival time, dose: 400.0 mg/kg/injection, schedule: Q01DX001 (ip), vehicle: saline with Tween-80
[7] = endpoint: mean survival time, dose: 100.0 mg/kg/injection, schedule: Q01DX001 (ip), vehicle: saline
[8] = endpoint: mean survival time, dose: 200.0 mg/kg/injection, schedule: Q01DX001 (ip), vehicle: saline
[9] = endpoint: mean survival time, dose: 400.0 mg/kg/injection, schedule: Q01DX001 (ip), vehicle: saline

Measured: T/C

Cc1c(C)c2c(c(C)c1OC(=O)CCC(=O)O)CCC(C)(CCCC(C)CCCC(C)CCCC(C)C)O2 (stereo not given)
inactive: [1] 102 % of control | [2] 98 % of control | [3] 94 % of control

CCCCOCCN1CCN(CCCN2c3ccccc3Sc3ccc(C(F)(F)F)cc32)CC1
inactive: endpoint: mean survival time, dose: 2.3 mg/kg/injection, schedule: Q01DX001 (ip), vehicle: saline 106 % of control | endpoint: mean survival time, dose: 3.5 mg/kg/injection, schedule: Q01DX001 (ip), vehicle: saline 100 % of control | endpoint: mean survival time, dose: 5.2 mg/kg/injection, schedule: Q01DX001 (ip), vehicle: saline 105 % of control | endpoint: mean survival time, dose: 7.2 mg/kg/injection, schedule: Q01DX001 (ip), vehicle: saline 112 % of control | endpoint: mean survival time, dose: 11.0 mg/kg/injection, schedule: Q01DX001 (ip), vehicle: saline 107 % of control | endpoint: mean survival time, dose: 16.0 mg/kg/injection, schedule: Q01DX001 (ip), vehicle: saline 104 % of control

C[CH2][Sn](/[CH]=C/C=C/OC)([CH2]C)[CH2]C
inactive: endpoint: mean survival time, dose: 0.04 mg/kg/injection, schedule: Q01DX009 (ip), vehicle: saline 101 % of control | endpoint: mean survival time, dose: 0.09 mg/kg/injection, schedule: Q01DX009 (ip), vehicle: saline 101 % of control

CN1CCC(CN2c3ccccc3Sc3ccccc32)C1 (stereo not given)
inactive: endpoint: mean survival time, dose: 12.5 mg/kg/injection, schedule: Q01DX009 (ip), vehicle: saline with Tween-80 107 % of control | endpoint: mean survival time, dose: 25.0 mg/kg/injection, schedule: Q01DX009 (ip), vehicle: saline with Tween-80 102 % of control | endpoint: mean survival time, dose: 50.0 mg/kg/injection, schedule: Q01DX009 (ip), vehicle: saline with Tween-80 123 % of control

CCN(CC)C(=O)[S-].CCN(CC)C(=O)[S-].[Ni+2]
inactive: [4] 94 % of control | [5] 98 % of control | [6] 102 % of control

COC1OC(COC(=O)c2ccc([N+](=O)[O-])cc2)C(SC#N)C1OC(=O)c1ccc([N+](=O)[O-])cc1 (stereo not given)
inactive: endpoint: mean survival time, dose: 50.0 mg/kg/injection, schedule: Q01DX001 (ip), vehicle: saline 101 % of control | [7] 101 % of control | [8] 91 % of control | [9] 101 % of control

C#CC(C)(O)CCCCCC (stereo not given)
inactive: endpoint: mean survival time, dose: 100.0 mg/kg/injection, schedule: Q01DX009 (ip), vehicle: saline with Tween-80 113 % of control | endpoint: mean survival time, dose: 200.0 mg/kg/injection, schedule: Q01DX009 (ip), vehicle: saline with Tween-80 100 % of control

CCCOC(=O)c1ccc(N)cc1
inactive: [4] 102 % of control | [5] 104 % of control | [6] 103 % of control

Cc1cc(Cl)cc([N+](=O)[O-])c1
inactive: [1] 92 % of control | [2] 88 % of control | [3] 87 % of control

COC1CCC([NH-])(C[NH-])C(c2ccc3c(c2)OCO3)O1.[Cl][Pt+2][Cl] (stereo not given)
inactive: endpoint: median survival time, dose: 8.25 mg/kg/injection, schedule: Q04DX003 (ip), vehicle: saline 103 % of control | endpoint: median survival time, dose: 17.5 mg/kg/injection, schedule: Q04DX003 (ip), vehicle: saline 105 % of control | endpoint: median survival time, dose: 35.0 mg/kg/injection, schedule: Q04DX003 (ip), vehicle: saline 110 % of control | endpoint: median survival time, dose: 70.0 mg/kg/injection, schedule: Q04DX003 (ip), vehicle: saline with Tween-80 108 % of control | endpoint: median survival time, dose: 70.0 mg/kg/injection, schedule: Q04DX003 (ip), vehicle: saline 106 % of control | endpoint: median survival time, dose: 140.0 mg/kg/injection, schedule: Q04DX003 (ip), vehicle: saline with Tween-80 113 % of control

CCCC(=O)C1=C(O)C(CC2=C(O)C(C)(C)C(=O)C(C(=O)CCC)=C2O)=C(O)C(C)(C)C1=O
inactive: [7] 98 % of control | [8] 101 % of control

O=C(CSCC(=O)c1ccc(Br)cc1)c1ccc(Br)cc1
inactive: [7] 112 % of control | [8] 98 % of control | [9] 101 % of control

O=C(CCCCCC(=O)OCCBr)OCCBr
inactive: endpoint: mean survival time, dose: 50.0 mg/kg/injection, schedule: Q04DX003 (ip), vehicle: saline sonified 102 % of control | endpoint: mean survival time, dose: 100.0 mg/kg/injection, schedule: Q04DX003 (ip), vehicle: saline sonified 100 % of control | endpoint: mean survival time, dose: 200.0 mg/kg/injection, schedule: Q04DX003 (ip), vehicle: saline sonified 93 % of control

O=C(O)c1cc(C(=O)O)c(C(=O)O)cc1C(=O)O.[NH2-].[NH2-].[NH2-].[NH2-].[Pt+2].[Pt+2]
inactive: endpoint: mean survival time, dose: 0.2 mg/kg/injection, schedule: Q04DX003 (ip), vehicle: water 124 % of control and 106 % of control | endpoint: mean survival time, dose: 0.39 mg/kg/injection, schedule: Q04DX003 (ip), vehicle: water 115 % of control and 119 % of control | endpoint: mean survival time, dose: 2.0 mg/kg/injection, schedule: Q04DX003 (ip), vehicle: water 98 % of control | endpoint: mean survival time, dose: 4.0 mg/kg/injection, schedule: Q04DX003 (ip), vehicle: water 97 % of control | endpoint: mean survival time, dose: 8.0 mg/kg/injection, schedule: Q04DX003 (ip), vehicle: water 106 % of control | endpoint: mean survival time, dose: 16.0 mg/kg/injection, schedule: Q04DX003 (ip), vehicle: water 110 % of control | endpoint: median survival time, dose: 0.12 mg/kg/injection, schedule: Q01DX009 (ip), vehicle: water 97 % of control | endpoint: median survival time, dose: 0.25 mg/kg/injection, schedule: Q01DX009 (ip), vehicle: water 97 % of control | endpoint: median survival time, dose: 0.5 mg/kg/injection, schedule: Q01DX009 (ip), vehicle: water 97 % of control | endpoint: median survival time, dose: 1.0 mg/kg/injection, schedule: Q01DX009 (ip), vehicle: water 92 % of control and 100 % of control and 112 % of control | endpoint: median survival time, dose: 2.0 mg/kg/injection, schedule: Q01DX009 (ip), vehicle: water 100 % of control and 101 % of control and 109 % of control | endpoint: median survival time, dose: 4.0 mg/kg/injection, schedule: Q01DX009 (ip), vehicle: water 124 % of control and 105 % of control | endpoint: median survival time, dose: 8.0 mg/kg/injection, schedule: Q01DX009 (ip), vehicle: water 124 % of control and 111 % of control (2×) | endpoint: median survival time, dose: 16.0 mg/kg/injection, schedule: Q01DX009 (ip), vehicle: water 96 % of control | endpoint: median survival time, dose: 32.0 mg/kg/injection, schedule: Q01DX009 (ip), vehicle: water 90 % of control

CC(=O)[O][Hg][c]1s[c]([Hg][O]C(C)=O)[c]([Hg][O]C(C)=O)[c]1[Hg][O]C(C)=O
inactive: endpoint: mean survival time, dose: 1.5 mg/kg/injection, schedule: Q01DX009 (ip), vehicle: saline sonified 96 % of control | endpoint: mean survival time, dose: 3.0 mg/kg/injection, schedule: Q01DX009 (ip), vehicle: saline sonified 98 % of control | endpoint: mean survival time, dose: 6.0 mg/kg/injection, schedule: Q01DX009 (ip), vehicle: saline sonified 106 % of control | endpoint: mean survival time, dose: 6.25 mg/kg/injection, schedule: Q01DX009 (ip), vehicle: Klucel (hydroxypropylcellulose) (HPC) 101 % of control | endpoint: mean survival time, dose: 6.25 mg/kg/injection, schedule: Q04DX003 (ip), vehicle: saline with Tween-80 104 % of control | endpoint: mean survival time, dose: 12.5 mg/kg/injection, schedule: Q01DX009 (ip), vehicle: Klucel (hydroxypropylcellulose) (HPC) 106 % of control | endpoint: mean survival time, dose: 25.0 mg/kg/injection, schedule: Q01DX009 (ip), vehicle: Klucel (hydroxypropylcellulose) (HPC) 104 % of control
